Data as given in patent publication US20240329050A1, “METHODS OF DETECTING PENTASACCHARIDES AND TREATMENT AND MONITORING OF LYSOSOMAL STORAGE DISEASE” (Washington University, priority 2021, published 2024).
Several values for one entry are separate records, joined by “and”; a condition that tells them apart may be missing. Equal values may be shown once.

Assay: Validation of stability of H3N2b in urine, plasma, CSF, stock solution and standard curve matrix
Assay type: physicochemical, human
Method: Validation of stability-The long-term storage, freeze/thaw stabilities, and stabilities on the bench-top and in the autosampler were determined at the LQC and HQC concentration levels (n=3). Long-term storage stabilities of […]-80° C. in urine, plasma, CSF were tested. Bench-top stabilities of […] were evaluated in urine at room temperature, in plasma at room temperature, in CSF at room temperature and 4° C. Freeze/thaw stability in urine, plasma, CSF was tested by freezing the samples at -80° C. overnight, followed by thawing to room temperature the next day. This process was repeated three times. […] Stock solution stability was established by quantification of samples from dilution of two stock solutions that were stored at -20° C. and at room temperature on the bench, respectively, to the final solution (10000 ng/mL in water). The stabilities of […] in the matrix of standard curve for urine, plasma, CSF were test after storage at room temperature and at -80° C. […] standard curve was established each time.

## CC(=O)N[C@H]1[C@H](O[C@@H]2[C@@H](O[C@@H]3[C@H](O)[C@H](O[C@H]4[C@H](O)[C@@H](NC(C)=O)C(O)O[C@@H]4CO)O[C@H](CO)[C@H]3O)O[C@H](CO)[C@@H](O)[C@@H]2O)O[C@H](CO)[C@@H](O[C@@H]2O[C@H](CO)[C@H](O)[C@H](O)[C@H]2O)[C@@H]1O (stereo partly drawn) [H3N2b, O-β-D-galactopyranosyl-(1→4)-O-(2-acetamido-2-deoxy-β-D-glucopyranosyl)-(1→2)-O-α-D-mannopyranosyl-(1→3)-O-β-D-mannopyranosyl-(1→4)-2-acetamido-2-deoxy-α,β-D-glucopyranose]
CSF
  Stable after freeze/thaw cycles: 3 freeze/thaw cycles
CSF at 4° C.
  Stable for: 1 days
CSF at −80° C.
  Stable for: 125 days
CSF, room temperature
  Stable for: 0.083 days
Matrix of standard curve for urine, plasma, CSF, room temperature
  Stable for: 1 days
plasma
  Stable after freeze/thaw cycles: 3 freeze/thaw cycles
Plasma at −80° C.
  Stable for: 158 days
plasma, room temperature
  Stable for: 1 days
Processed CSF samples at 4° C.
  Stable for: 3 days
Processed plasma samples at 4° C.
  Stable for: 3 days
Processed urine samples at 4° C.
  Stable for: 3 days
Standard curve samples for CSF at −80° C.
  Stable for: 125 days
Standard curve samples for plasma at −80° C.
  Stable for: 158 days
Standard curve samples for urine at −80° C.
  Stable for: 194 days
Stock solution at −20° C.
  Stable for: 232 days and 231 days
Stock solution, room temperature
  Stable for: 1 days
urine
  Stable after freeze/thaw cycles: 3 freeze/thaw cycles
Urine at −80° C.
  Stable for: 194 days
urine, room temperature
  Stable for: 1 days
